Tests used:
[1] = target: T1, Amine oxidase [flavin-containing] A (Homo sapiens, UniProt P21397); assay: Inhibition of human recombinant MAOA using kynuramine as substrate incubated for 10 mins by UPLC-ESI-MS/MS analysis
T1 sequence (P21397 whole entry): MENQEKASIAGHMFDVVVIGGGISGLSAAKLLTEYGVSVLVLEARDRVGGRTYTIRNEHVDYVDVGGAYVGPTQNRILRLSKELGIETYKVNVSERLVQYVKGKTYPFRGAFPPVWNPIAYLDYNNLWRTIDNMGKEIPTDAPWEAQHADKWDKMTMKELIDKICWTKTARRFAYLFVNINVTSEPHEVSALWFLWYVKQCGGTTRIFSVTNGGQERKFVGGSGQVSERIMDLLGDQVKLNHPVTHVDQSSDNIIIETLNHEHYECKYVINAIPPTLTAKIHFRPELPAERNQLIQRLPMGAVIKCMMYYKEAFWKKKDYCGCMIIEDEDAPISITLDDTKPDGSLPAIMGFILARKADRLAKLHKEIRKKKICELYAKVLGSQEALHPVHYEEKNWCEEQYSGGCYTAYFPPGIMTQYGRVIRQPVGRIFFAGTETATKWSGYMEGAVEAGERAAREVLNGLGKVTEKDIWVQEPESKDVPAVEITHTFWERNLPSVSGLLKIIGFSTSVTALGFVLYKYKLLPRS

[2] = target: T2, Amine oxidase [flavin-containing] B (Homo sapiens, UniProt P27338); assay: Inhibition of human recombinant MAOB using kynuramine as substrate incubated for 10 mins by UPLC-ESI-MS/MS analysis
T2 sequence (P27338 whole entry): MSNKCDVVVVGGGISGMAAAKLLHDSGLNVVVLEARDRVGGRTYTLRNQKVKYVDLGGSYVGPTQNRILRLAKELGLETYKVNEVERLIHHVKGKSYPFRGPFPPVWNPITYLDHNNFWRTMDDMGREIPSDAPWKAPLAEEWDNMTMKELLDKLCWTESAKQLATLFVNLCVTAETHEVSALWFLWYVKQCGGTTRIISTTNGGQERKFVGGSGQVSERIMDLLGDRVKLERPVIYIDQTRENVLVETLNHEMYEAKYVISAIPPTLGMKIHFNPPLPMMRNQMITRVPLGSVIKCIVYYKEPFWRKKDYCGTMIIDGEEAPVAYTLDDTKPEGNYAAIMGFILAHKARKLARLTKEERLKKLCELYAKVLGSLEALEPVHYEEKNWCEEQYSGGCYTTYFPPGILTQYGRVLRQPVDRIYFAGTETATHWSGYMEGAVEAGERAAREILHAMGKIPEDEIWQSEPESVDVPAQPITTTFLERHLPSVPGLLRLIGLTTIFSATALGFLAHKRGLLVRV

[3] = species on record: Homo sapiens; assay: Selectivity index, ratio of IC50 for human recombinant MAOB to IC50 for human recombinant MAOA
[4] = target: T1, Amine oxidase [flavin-containing] A; assay: Tight binding competitive inhibition of human recombinant MAOA using 50 uM to 1000 uM kynuramine as substrate incubated for 10 mins by UPLC-ESI-MS/MS analysis based kinetic analysis
[5] = target: T1, Amine oxidase [flavin-containing] A; assay: Inhibition of human recombinant MAOA using kynuramine as substrate incubated for 10 mins by UPLC-ESI-MS/MS analysis based Michaelis-Menten plot kinetic analysis
[6] = target: T1, Amine oxidase [flavin-containing] A; assay: Inhibition of human recombinant MAOA using kynuramine as substrate incubated for 10 mins by UPLC-ESI-MS/MS analysis based Eadie-Hofstee plot analysis
[7] = target: T1, Amine oxidase [flavin-containing] A; assay: Tight-binding competitive inhibition of human recombinant MAOA using kynuramine as substrate incubated for 10 mins by UPLC-ESI-MS/MS analysis based Lineweaver-Burk plot kinetic analysis

## CC[C@@H]1Cc2c(C)cc(-c3cncnc3)c(O)c2C(=O)O1
[1]
  IC50: 60 nM
[2]
  IC50: > 50000 nM
[3]
  Ratio IC50: > 830
[4]
  inhibition (INH): Active
[5]
  inhibition (INH): Active
[6]
  inhibition (INH): Active
[7]
  inhibition (INH): Active

From ChEMBL document CHEMBL4392854, “Discovery, synthesis, biological evaluation and molecular docking study of (R)-5-methylmellein and its analogs as selective monoamine oxidase A inhibitors” (Bioorg Med Chem, 2019)
